In ChEMBL document CHEMBL4732079, “Design, synthesis and antitumor evaluation of new 1,8-naphthalimide derivatives targeting nuclear DNA” (Eur J Med Chem, 2021):
pIC50: −log10 of the molar value. Calls of active or inactive are those of the source. The rule behind the calls is not given here.

Experiments:
MGC-803 [1] = assay: Antitumor activity against human MGC-803 cells xenografted in BALB/c nude mice assessed as tumor inhibitory rate at 5 mg/kg, ip measured after 21 days relative to control; format: functional; conditions: Mus musculus, MGC-803, ip, 504 h, time 21 day
MGC-803 [2] = assay: Induction of cell cycle arrest in human MGC-803 cells assessed as accumulation of cells at G1 phase at 1 uM for 24 hrs (reference value: 62.6%); format: functional
DNA [3] = assay: Binding affinity to Escherichia coli pBR322 DNA assessed as intercalation at 10 to 100 uM by agarose gel electrophoresis assay; format: nucleic-acid assay; conditions: dose 10-100 µM
A549 = assay: cells; conditions: Homo sapiens
Description: Antiproliferative activity against human A549 cells by MTT assay

MGC-803 [4] = assay: Induction of apoptosis in human MGC-803 cells assessed as early apoptotic cells at 2 uM after 24 hrs (reference value: 2.9%); format: functional
MGC-803 [5] = assay: Upregulation of p21 expression in human MGC-803 cells at 0.5 to 1 uM by Western blot analysis; format: functional, cell-based; conditions: dose 0.5-1 µM
MGC-803 [6] = assay: Induction of apoptosis in human MGC-803 cells assessed as late apoptotic cells at 0.5 uM after 24 hrs (reference value: 2.6%); format: functional
MGC-803 [7] = assay: Induction of apoptosis in human MGC-803 cells assessed as viable cells at 2 uM after 24 hrs (reference value: 93.6%); format: functional; conditions: read-out: Activity
MGC-803 [8] = assay: Induction of cell cycle arrest in human MGC-803 cells assessed as accumulation of cells at S phase at 0.5 uM for 24 hrs (Rvb =20.23%); format: functional
MGC-803 [9] = assay: Induction of apoptosis in human MGC-803 cells assessed as viable cells at 1 uM after 24 hrs (reference value: 93.6%); format: functional; conditions: read-out: Activity
MGC-803 [10] = assay: Induction of apoptosis in human MGC-803 cells assessed as late apoptotic cells at 2 uM after 24 hrs (reference value: 2.6%); format: functional
MGC-803 [11] = assay: Induction of cell cycle arrest in human MGC-803 cells assessed as accumulation of cells at G2 phase at 1 uM for 24 hrs (reference value: 17.61%); format: functional
MGC-803 [12] = assay: Induction of apoptosis in human MGC-803 cells assessed as late apoptotic cells at 1 uM after 24 hrs (reference value: 2.6%); format: functional
[13] = target: T1, DNA topoisomerase 1 (Homo sapiens) (UniProt P11387); assay: Inhibition of topoisomerase 1 (unknown origin) assessed as DNA relaxation using pBR322 DNA as substrate at < 20 uM by gel electrophoresis; conditions: dose microM <20
T1 sequence (whole entry): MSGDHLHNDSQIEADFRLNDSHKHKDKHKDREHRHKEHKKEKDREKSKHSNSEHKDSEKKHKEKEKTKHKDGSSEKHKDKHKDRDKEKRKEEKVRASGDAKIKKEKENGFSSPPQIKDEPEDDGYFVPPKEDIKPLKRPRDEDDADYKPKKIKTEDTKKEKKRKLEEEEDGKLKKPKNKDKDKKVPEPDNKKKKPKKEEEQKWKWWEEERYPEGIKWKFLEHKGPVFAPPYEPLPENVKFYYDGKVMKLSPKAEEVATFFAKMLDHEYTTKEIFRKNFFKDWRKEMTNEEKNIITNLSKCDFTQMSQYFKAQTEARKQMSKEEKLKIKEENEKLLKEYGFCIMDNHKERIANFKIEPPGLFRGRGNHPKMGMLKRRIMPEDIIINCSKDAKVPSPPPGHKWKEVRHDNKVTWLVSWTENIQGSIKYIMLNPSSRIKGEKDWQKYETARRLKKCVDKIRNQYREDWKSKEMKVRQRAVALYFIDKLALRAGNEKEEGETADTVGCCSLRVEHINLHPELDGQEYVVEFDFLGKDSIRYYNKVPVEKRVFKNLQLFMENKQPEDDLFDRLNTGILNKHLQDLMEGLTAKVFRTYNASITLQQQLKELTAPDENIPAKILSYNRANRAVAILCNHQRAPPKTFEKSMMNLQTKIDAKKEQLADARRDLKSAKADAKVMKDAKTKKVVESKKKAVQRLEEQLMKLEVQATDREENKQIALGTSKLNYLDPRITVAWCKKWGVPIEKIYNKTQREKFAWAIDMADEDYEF

MGC-803 [14] = assay: Antiproliferative activity against human MGC-803 cells by MTT assay; format: functional, cell-based
MGC-803 [15] = assay: Induction of apoptosis in human MGC-803 cells assessed as necrotic cells at 2 uM after 24 hrs (reference value: 0.9%); format: functional
MGC-803 [16] = assay: Induction of apoptosis in human MGC-803 cells assessed as increase in PARP expression at 0.5 to 1 uM by Western blot analysis; format: functional, cell-based; conditions: dose 0.5-1 µM
SK-OV-3 = assay: Antiproliferative activity against human SK-OV-3 cells by MTT assay; format: functional, cell-based
DNA [17] = assay: Induction of DNA damage in human MGC-803 cells assessed as increase in p-ATM levels at 0.5 to 1 uM by Western blot analysis; format: cell-based; conditions: dose 0.5-1 µM
DNA [18] = assay: Induction of DNA damage in human MGC-803 cells assessed as increase in Cdc25A levels at 0.5 to 1 uM by Western blot analysis; format: cell-based; conditions: dose 0.5-1 µM
MGC-803 [19] = assay: Induction of apoptosis in human MGC-803 cells assessed as early apoptotic cells at 0.5 uM after 24 hrs (reference value: 2.9%); format: functional
MGC-803 [20] = assay: Induction of cell cycle arrest in human MGC-803 cells assessed as accumulation of cells at G1 phase at 0.5 uM for 24 hrs (reference value: 62.6%); format: functional
MGC-803 [21] = assay: Induction of cell cycle arrest in human MGC-803 cells assessed as accumulation of cells at S phase at 0.25 uM for 24 hrs (Rvb =20.23%); format: functional
MGC-803 [22] = assay: Induction of cell cycle arrest in human MGC-803 cells assessed as accumulation of cells at G2 phase at 0.5 uM for 24 hrs (reference value: 17.61%); format: functional
MGC-803 [23] = assay: Downregulation of cyclinE expression in human MGC-803 cells at 0.5 to 1 uM by Western blot analysis; format: functional, cell-based; conditions: dose 0.5-1 µM
MGC-803 [24] = assay: Effect on CDK2 expression in human MGC-803 cells at 0.5 to 1 uM by Western blot analysis; format: functional, cell-based; conditions: dose 0.5-1 µM
MGC-803 [25] = assay: Induction of cell cycle arrest in human MGC-803 cells assessed as accumulation of cells at G2 phase at 0.25 uM for 24 hrs (reference value: 17.61%); format: functional
MGC-803 [26] = assay: Induction of apoptosis in human MGC-803 cells assessed as increase in caspase-3 expression at 0.5 to 1 uM by Western blot analysis; format: functional, cell-based; conditions: dose 0.5-1 µM
DNA [27] = assay: Induction of DNA damage in human MGC-803 cells assessed as long DNA tails at 1 uM after 24 hrs by comet assay; format: cell-based
DNA [28] = assay: Induction of DNA damage in human MGC-803 cells assessed as increase in p-H2AX levels at 0.5 to 1 uM by Western blot analysis; format: cell-based; conditions: dose 0.5-1 µM
MGC-803 [29] = assay: Induction of apoptosis in human MGC-803 cells assessed as early apoptotic cells at 1 uM after 24 hrs (reference value: 2.9%); format: functional
MGC-803 [30] = assay: Antitumor activity against human MGC-803 cells xenografted in BALB/c nude mice assessed as tumor increment rate at 15 mg/kg, ip measured after 21 days relative to control; format: functional; conditions: time 21 day

SMILES | inhibition in vivo at 5 mg/kg (MGC-803 [1]) | Activity (MGC-803 [2]) | Activity (DNA [3]) | pIC50 (A549) | Activity (MGC-803 [4]) | Activity (MGC-803 [5]) | Activity (MGC-803 [6]) | viability at 2 µM (MGC-803 [7]) | Activity (MGC-803 [8]) | viability at 1 µM (MGC-803 [9]) | Activity (MGC-803 [10]) | Activity (MGC-803 [11]) | Activity (MGC-803 [12]) | inhibition [13] | pIC50 (MGC-803 [14]) | Activity (MGC-803 [15]) | Activity (MGC-803 [16]) | pIC50 (SK-OV-3) | Activity (DNA [17]) | Activity (DNA [18]) | also measured
Cc1ccc(S(=O)(=O)N2CCN(c3c([N+](=O)[O-])cc4c5c(cccc35)C(=O)N(CCN(C)C)C4=O)CC2)cc1 | 41.9% | 24.82% | Active | 6.57 | 16.8% | Active | 7.6% | 66.9% | 43.96% | 72.9% | 10.2% | 0% | 9.8% | Active | 5.85 | 6.2% | Active | 6.49 | Active | Active | Activity (MGC-803 [19]): 9.7%; Activity (MGC-803 [20]): 55.85%; Activity (MGC-803 [21]): 40.4%; Activity (MGC-803 [22]): 0.19%; inhibition (MGC-803 [23]): Active; Activity (MGC-803 [24]): Active; Activity (MGC-803 [25]): 5.83%; Activity (MGC-803 [26]): Active; Activity (DNA [27]): Active; Activity (DNA [28]): Active; Activity (MGC-803 [29]): 13.1%; T/C (MGC-803 [30]): 38.4%
CN(C)CCN1C(=O)c2cccc3c(N4CCN(C(=O)c5ccccc5)CC4)c([N+](=O)[O-])cc(c23)C1=O | 40.1% | 27.92% | Active | 6.39 | 32% | Active | 11.6% | 41.9% | 69.18% | 66.5% | 20.5% | 0.92% | 11.2% | Active | 6.06 | 5.6% | Active | 5.73 | Active | Active | Activity (MGC-803 [19]): 10.1%; Activity (MGC-803 [20]): 27.88%; Activity (MGC-803 [21]): 37.8%; Activity (MGC-803 [22]): 3.14%; inhibition (MGC-803 [23]): Active; Activity (MGC-803 [24]): Active; Activity (MGC-803 [25]): 11.29%; Activity (MGC-803 [26]): Active; Activity (DNA [27]): Active; Activity (DNA [28]): Active; Activity (MGC-803 [29]): 17.5%; T/C (MGC-803 [30]): 47.1%
